For series [1], the system named is HCT116-FUCCI cells. Description: FUCCI cell cycle assay with nuclear gating. Type of series: cell-based, human. The conditions noted are these: for change of FUCCI nuclei population in comparison to DMSO / main nuclei color: 10 µM; for change of FUCCI nuclei population in comparison to DMSO: up to 70 h; for main nuclei color: Table S3; for IC50: Homo sapiens, average and SEM of two independent experiments. As to the method:
For generation of a stable cell line, including the florescent ubiquitination-base cell cycle indicator FUCCI, the plasmid-based transposon system Sleeping Beauty was used. Vector (pSBbi_Fucci) and the Transposase SB100X have been described previously. […] Two days after transfection, cells were selected over 10 days using puromycin (1 µg/mL) and cultivated afterwards for two more weeks in McCoys 5A plus L-Glutamine (Gibco) supplemented by 10% FBS (Gibco) and Penicillin/Streptomycin (Gibco).
Fluorescence and cellular shape were measured before and after compound treatment for 72 h every 12 h using the CQ1 high-content confocal microscope (Yokogawa). […]
Image analysis was performed using the CellPathfinder software (Yokogawa). Segmentation of cells was performed as described earlier. First, the cells are classified in Hoechst High Intensity Objects or Normal Intensity Objects (Supplementary Table S7). All normal gated cells are further classified in healthy, fragmented or pyknosed nuclei (Supplementary Table S7). […] Total cell count was normalized against total cell count of cells treated with 0.1% DMSO.

The subject of series [2] is U2OS cells. The series is described as follows: Multiplex high-content protocol (nuclei gating, tubulin, mitochondrial mass, membrane permeability). Type of series: cell-based, human. The procedure:
Using the CQ1 high-content confocal microscope (Yokogawa), cellular shape and fluorescence was measured before and 12 h as well as 24 h after compound treatment. All compounds were diluted in DMSO to a concentration of 10 mM.
The rather large spacing distance was used to create a robust readout, compensating potential plate variations and enabling automated screening without the use of autofocus. The overlap of the fluorescence emission spectra of the dyes was neglectable for all but the MitoTracker Red and Annexin V Alexa Fluor 680 (Supplementary Figure S9).
All images were analyzed using the CellPathfinder software (Yokogawa). Segmentation of cells was performed as described earlier. First, the cells are classified in Hoechst High Intensity Objects or Normal Intensity Objects (Supplementary Table S7). All normal gated cells are further classified in healthy, fragmented or pyknosed nuclei (Supplementary Table S7). The pyknosed cells are gated in mitotic or apoptotic cells using seven features for the cell body and five features for the cell nuclei according to their Annexin V staining intensity (Supplementary Table S7). All cells that were classified as including a healthy nucleus are further gated into three phenotypic classes. […] Growth rate was calculated against non-treated cells and cells treated with DMSO 0.1% [61].

The subject of series [3] is U2OS cells. The series is described as follows: cells. The conditions noted are these: Homo sapiens.
The test system of series [4] is HCT116-FUCCI cells. Set-up: method as in per compound as in column reference of Table S3. The conditions noted are these: literature annotation in Table S3; ref per compound as in Table S3; cited from earlier work.
For series [5] the following is noted: source not stated; cited from earlier work.
In series [6] the test system is FGFR. Conditions: cited from earlier work.
For series [7], the system named is U2OS cells. Conditions: High-Via Extend protocol, cell line and unit inferred.
The mark [8] stands for this setting: read-out: IC 50 14 h, Table S2, 14 h.
Setting [9] is: read-out: IC 50 26 h, Table S2, 26 h.
Where [10] appears, read: read-out: IC 50 42 h, Table S2, 42 h.
Where [11] appears, read: read-out: IC 50 56 h, Table S2, 56 h.

Like-named read-outs stand apart in the source and are kept apart here.

For the compound `CC[C@@]1(O)C(=O)OCc2c1cc1n(c2=O)Cc2cc3ccccc3nc2-1` [camptothecin], in series [1], the “change of FUCCI nuclei population in comparison to DMSO” value (from here on “change of FUCCI nuclei population”) is reported as “increase in green nuclei”. For the same compound, in series [2] (U2OS, 1 µM), the “Hoechst High Intensity Objects (Hoechst intensity compared to normal nuclei)” value is reported as “more than 50%”. For the same compound, the “healthy nuclei (healthy cells)” value in series [2] (U2OS, 10 µM, 24 h) is “less than 50%”. The “Hoechst High Intensity Objects” value in series [2] (U2OS, 10 µM, after 24 h, in one of two biological replicates) was greater than 30%. Moreover, the IC50 in series [3] (14 h, read-out: IC 50 14 h) is 2600 nM; in series [3] (14 h, read-out: IC50, normalized healthy cell count), 4700 nM; in series [3] (14 h, read-out: IC50, normalized healthy nuclear count) it was 6100 nM; in series [3] (26 h, read-out: IC 50 26 h), 2300 nM; in series [3] (28 h, read-out: IC50, normalized healthy cell count) it was 1800 nM; in series [3] (28 h, read-out: IC50, normalized healthy nuclear count), 1700 nM. The IC50 was 1500 nM in series [3] (42 h, read-out: IC 50 42 h); 290 nM in series [3] (42 h, read-out: IC50, normalized healthy cell count); 438 nM in series [3] (42 h, read-out: IC50, normalized healthy nuclear count); 1100 nM in series [3] (56 h, read-out: IC 50 56 h); 50.9 nM in series [3] (56 h, read-out: IC50, normalized healthy cell count); 43.4 nM in series [3] (56 h, read-out: IC50, normalized healthy nuclear count). Also, the “known cell cycle effect” value in series [4] is on record as “mitotic arrest”.

As to `CN1CCN(C(=O)C(C)(C)c2ccc(C(=O)Nc3cn4cc(-c5ccncc5)ccc4n3)cc2)CC1` [T3-CLK], in series [1], the main nuclei color result is “green”. In series [4], the “known cell cycle effect” value was “G2/M cell cycle arrest”.

In general, logP refers to the decadic logarithm of the partition coefficient of the neutral form, usually between octanol and water. Take `CCN(CC)CCCCNc1ncc2cc(-c3cc(OC)cc(OC)c3)c(NC(=O)NC(C)(C)C)nc2n1` [PD173074]: in series [2] (U2OS, 1 µM), the “Hoechst High Intensity Objects (Hoechst intensity compared to normal nuclei)” value is given as “more than 50%” and the “compound precipitation in assay” value was “precipitated”. In addition, the logP in series [5] is given as 4.7. Further, the cellular activity entry in series [6] is listed as “less than 25 nM”.

In the case of `N#Cc1c2nc3ccccc3nc2n2ccc(NC(=O)c3cccs3)cc12` [HI-TOPK-032], in series [1], the main nuclei color entry is given as “yellow” and the “change of FUCCI nuclei population” value is “increased number of cells with yellow nuclei”. Moreover, in series [4], the “known cell cycle effect” value is “during mitosis, G1 cell”.

For `COc1cccc2c1C(=O)c1c(O)c3c(c(O)c1C2=O)C[C@@](O)(C(C)=O)C[C@@H]3O[C@H]1C[C@H](N)[C@H](O)[C@H](C)O1` [daunorubicin], the “change of FUCCI nuclei population” value in series [1] is “More yellow nuclei”. Further, the “healthy nuclei (healthy cells)” value in series [2] (U2OS, 10 µM, 24 h) was “less than 50%”. Further, the “known cell cycle effect” value in series [4] was “breaks, cell cycle arrest”.

Turning to `CC(=O)O[C@H]1C(=O)[C@@]2(C)[C@H]([C@H](OC(=O)c3ccccc3)[C@]3(O)C[C@H](OC(=O)[C@H](O)[C@@H](NC(=O)c4ccccc4)c4ccccc4)C(C)=C1C3(C)C)[C@]1(OC(C)=O)CO[C@@H]1C[C@@H]2O` [paclitaxel], in series [1], the “change of FUCCI nuclei population” value was “increase in red nuclei”. Moreover, the IC50 in series [3] (14 h, read-out: IC 50 14 h) was greater than 2000 nM; in series [3] (26 h, read-out: IC 50 26 h), 100 nM; in series [3] (42 h, read-out: IC 50 42 h) it was 60 nM; in series [3] (56 h, read-out: IC 50 56 h) it was 50 nM. Further, the “known cell cycle effect” value in series [4] was “concentration-dependent”.

With `O=c1cc(-c2ccccc2)oc2c1ccc1ccccc12` [α-naphthoflavone], the “change of FUCCI nuclei population” value in series [1] is “increase in red nuclei”. Moreover, the “known cell cycle effect” value in series [4] was “G1 cell cy cle arrest”.

In the case of `CCC(=O)N1CCN(c2ccc(-n3c(=O)ccc4cnc5ccc(-c6cnc7ccccc7c6)cc5c43)cc2C(F)(F)F)CC1` [torin], the IC50 in series [7] (setting [8]) turned out to be 800 nM; in series [7] (setting [9]), 800 nM; in series [7] (setting [10]), 700 nM; in series [7] (setting [11]), 700 nM.

As for `COc1cccc2c1C(=O)c1c(O)c3c(c(O)c1C2=O)C[C@@](O)(C(=O)CO)C[C@@H]3O[C@H]1C[C@H](N)[C@H](O)[C@H](C)O1` [doxorubicin], the “change of FUCCI nuclei population” value in series [1] was “More yellow nuclei”. Further, the “known cell cycle effect” value in series [4] is “G0/G1 cell cycle arrest”.

As for `O=C1c2c(O)ccc(O)c2C(=O)c2c(NCCNCCO)ccc(NCCNCCO)c21` [mitoxantrone], the “change of FUCCI nuclei population” value in series [1] was “increase in green nuclei”. In series [4], the “known cell cycle effect” value was “delay in cell cycle”.

Turning to `CNC(=O)c1nn(C)c2c1C(C)(C)Cc1cnc(Nc3ccc(N4CCN(C)CC4)cc3)nc1-2` [milciclib], the “cell cycle population distribution of healthy gated nuclei” value in series [1] (1 µM, after 18 h, versus DMSO) is “higher population of ‘red’ nuclei”. Also, the IC50 was found to be 5990 ± 260 nM in series [1] (18h, read-out: IC50(18h), normalized healthy cell count); 1990 ± 350 nM in series [1] (32h, read-out: IC50(32h), normalized healthy cell count); 850 ± 90 nM in series [1] (45h, read-out: IC50(45h), normalized healthy cell count); 570 ± 50 nM in series [1] (59h, read-out: IC50(59h), normalized healthy cell count); 2100 nM in series [3] (14 h, read-out: IC 50 14 h); 800 nM in series [3] (26 h, read-out: IC 50 26 h). Moreover, the IC50 was 600 nM in series [3] (42 h, read-out: IC 50 42 h) and 500 nM in series [3] (56 h, read-out: IC 50 56 h). Besides, the “increase in mitochondrial mass in comparison to DMSO” value in series [2] (U2OS, 10 µM, 24 h, healthy nuclei only) is given as “over 60%”. Besides, the “known cell cycle effect” value in series [4] is recorded as “G1 cell cy cle arrest”.

Turning to `CCOC(=O)Nc1cc(-c2ccc(C)c(NS(C)(=O)=O)c2)nn2c(C)nnc12` [Bromosporine], the “marked for tubulin effects while crossing no other phenotypic threshold” value in series [2] (U2OS, 1 µM, threshold > 50%) is listed as “marked to have tubulin effects”. Further, in series [4], the “known cell cycle effect” value is reported as “increase of cells in G1”.

`CN[C@@H]1C[C@H]2O[C@@](C)([C@@H]1OC)n1c3ccccc3c3c4c(c5c6ccccc6n2c5c31)C(=O)NC4` [staurosporine]: in series [2] (10 µM), the “mitochondrial mass, first analysis gating all cells independently of viability” value is recorded as “increased mitochondrial mass” and the “tubulin effect, first analysis gating all cells independently of viability” value is recorded as “tubulin effects”. Also, the “healthy nuclei (healthy cells)” value in series [2] (U2OS, 10 µM, 24 h) is recorded as “less than 50%”. Besides, the “known cell cycle effect” value in series [4] is listed as “dose-dependent cell”.

On to `Cc1sc2c(c1C)C(c1ccc(Cl)cc1)=N[C@@H](CC(=O)OC(C)(C)C)c1nnc(C)n1-2` [JQ1], for which the IC50 in series [7] (setting [8]) worked out at 9700 nM; in series [7] (setting [9]), 9000 nM; in series [7] (setting [10]), 13700 nM; in series [7] (setting [11]) it was 200 nM.

The values are drawn from paper PMC8878468, “Image-Based Annotation of Chemogenomic Libraries for Phenotypic Screening” (Molecules, 2022).
